Article PMC7331731, “Activity of vitamin D receptor agonists against dengue virus” (Scientific Reports, 2020)

Key:
[1] = test system: DENV infected monocytic U937 cells or hepatic Huh-7 cells; design: method as in PMID 22387385; settings: U937 or Huh-7 cells; cited from earlier work
DENV 2 [2] = experiment: Level of DENV 2 infection by flow cytometry (HEK293T/17 cells); type: cell-based, dengue virus; settings: for level of infection: HEK293T/17, vs 0.01% DMSO control; for level of infection, treatment at 6 and 12 h post-infection: read at 24 h.p.i.
Protocol: (§1) HEK293T/17 cells were cultured on 6-well plates until 70% confluence was reached under standard conditions. The cells were mock-infected or infected with DENV 2 at a multiplicity (MOI) of 5 for 2 h. After infection, the medium was removed and the infected cells were incubated with appropriate concentrations of the VDR agonists until 24 h.p.i., in parallel with DMSO treated control cells. Experiments were performed independently triplicate.
(§2) For time course experiments, under conditions of pre-infection treatment, HEK293T/17 cells were pre-treated with an appropriate concentration of VDR agonists for 1, 3 or 6 h before infection, followed by incubation in complete medium. For treatment post-infection, infected cells were treated with VDR agonists at 0, 1, 3, 6 and 12 h.p.i. The infected cells and supernatant for both pre- and post-treated samples were collected at 24 h.p.i. Experiments were performed independently triplicate.
HEK293T/17 cells were mock-infected or infected with DENV 2 at MOI 5 for 2 h, followed by treatment with the appropriate concentration of VDR agonists. At 24 hpi, the treated cells were harvested and Fc receptors were blocked with 10% goat serum (Gibco BRL, Gaithersburg, MD) for 30 min at 4 °C. The cells were washed with 1% BSA in 1X PBS/IFA (150 mM NaCl, 50 mM NaH2PO4, 50 m M Na2HPO4, pH to 7.4) and centrifuged at 6,000 g for 5 min. Then, the cells were fixed with 4% paraformaldehyde in 1X PBS/IFA at room temperature in the dark for 20 min, followed by the washing. Cell membrane permeabilization was performed using 0.2%Triton-X in 1X PBS/IFA for 10 min in the dark followed by overnight incubation with a 1:150 dilution of a pan-specific mouse monoclonal anti-dengue E protein antibody (HB114[44]). Cells were subsequently incubated for 1 h in the dark with a 1:40 dilution of a fluorescein isothiocyanate (FITC)-conjugated goat anti-mouse IgG antibody (KPL, Guilford, UK) with washing between each step 1% BSA/PBS-IFA. Finally, the cells were analyzed by flow cytometry on a BD FACSCalibur cytometer (Becton Dickinson, BD Biosciences, San Jose, CA) using the CELLQuest software. All experiments were performed independently in triplicate.

DENV 3 (strain 16562) = experiment: Virus titer by plaque assay, DENV 3; type: cell-based, dengue virus; settings: 10 μM, 24 h, HEK293T/17, MOI 10
Protocol: (§3) For viruses other than DENV 2, HEK293T/17 cells were infected with DENV 1 (strain 16007), DENV 3 (strain 16562), DENV 4 (strain 1036) and ZIKV (strain SV0010/15) at MOI 10 and with JEV (strain BJ1) at MOI 1. At 2 h.p.i., the virus was removed and the cells were incubated with 10 μM of VDR agonist (ZD-6) in complete medium for 24 h, after which the supernatant was collected, and the virus titer was determined by standard plaque assay. Experiments were performed independently triplicate.

[3] = test system: DENV 1, 3, 4, JEV and ZIKV; experiment: Activity against other flaviviruses, plaque assay (all viruses together); type: cell-based; settings: 10 μM, 24 h, HEK293T/17, range over DENV 1, 3, 4, JEV, lowest for JEV and ZIKV
Protocol: as §3

JEV (strain BJ1) = experiment: Virus titer by plaque assay, JEV; type: cell-based; settings: 10 μM, 24 h, HEK293T/17, MOI 1
Protocol: as §3

DENV 1 (strain 16007) = experiment: Virus titer by plaque assay, DENV 1; type: cell-based, dengue virus; settings: 10 μM, 24 h, HEK293T/17, MOI 10
Protocol: as §3

DENV 2 [4] = experiment: DENV 2 virus titer in supernatant by standard plaque assay (infected HEK293T/17 cells); type: cell-based, dengue virus; settings: for EC50: HEK293T/17 cells, DENV 2 MOI 5, post-infection treatment, virus titer at 24 h by plaque assay; for virus titer, treatment at 6 and 12 h post-infection: read at 24 h.p.i.
Protocol: Human embryonic kidney HEK293T/17 (ATCC No. CRL-11268) and human hepatocellular HepG2 (ATCC No. HB-8065) cells were cultured in complete medium, composed of Dulbecco’s modified Eagle medium (DMEM; Gibco BRL) supplemented with 10% heat-inactivated fetal bovine serum (FBS) at 37 °C with 5% CO2. Dengue virus serotype 2 (DENV 2) strain 16681, DENV 1 (strain 16007), DENV 3 (strain 16562), DENV 4 (strain 1036), ZIKV (strain SV0010/15) and JEV (strain BJ1) were all propagated in the Aedes albopictus cell line C6/36 (ATCC No. CRL-1660). Viral progenies in the supernatant were collected and centrifuged at 1,000g to remove cell debris. The virus stocks were kept at − 80 °C until used. Virus titers were determined by standard plaque assay on LLC-MK2 cells (ATCC No. CCL-7).
as §1, §2

DENV 4 (strain 1036) = experiment: Virus titer by plaque assay, DENV 4; type: cell-based, dengue virus; settings: 10 μM, 24 h, HEK293T/17, MOI 10
Protocol: as §3

ZIKV (strain SV0010/15) = experiment: Virus titer by plaque assay, ZIKV; type: cell-based; settings: 10 μM, 24 h, HEK293T/17, MOI 10
Protocol: as §3

VDR = experiment: VDR-regulated gene expression by qRT-PCR, VDR; type: cell-based, human; settings: 20 µM, 24 h, HEK293T/17, vs actin and 0.02% DMSO
Protocol: (§4) HEK293T/17 cells were incubated with either 10 µM of VDR agonists or 20 μM of commercial VDR agonist EB1089 (Tocris Cookson Ltd., Bristol, UK) for 24 h. Subsequently, the treated cell lysate was collected to determine the mRNA levels of the VDR gene as well as genes regulated by VDR. Total RNA was extracted and cDNA was synthesized as described above. Amplification was performed using specific primers, namely VDR-F: 5′-[…]-3′, VDR-R: 5′-AGTGGCGTCGGTTGTCCTT-3′, CYP27B1-F: 5′-[…]-3′, CYP27B1-R 5′-[…]-3′, CYP24A1-F: 5′-[…]-3′ and CYP24A1-R 5′-[…]-3′. The mRNA expression was normalized against β-actin and DMSO control-treated cells, respectively according to the following equation: ΔΔCt = ΔCt (gene)—ΔCt (DMSO). Experiments were performed independently in triplicate with triplicate real-time PCR.

CYP27B1 = experiment: VDR-regulated gene expression by qRT-PCR, CYP27B1; type: cell-based, human; settings: 20 µM, 24 h, HEK293T/17, vs actin and 0.02% DMSO
Protocol: as §4

CYP24A1 = experiment: VDR-regulated gene expression by qRT-PCR, CYP24A1; type: cell-based, human; settings: 20 µM, 24 h, HEK293T/17, vs actin and 0.02% DMSO
Protocol: as §4

DENV 2 [5] = experiment: Level of DENV 2 infection in HepG2 cells by flow cytometry; type: cell-based, dengue virus; settings: 10 μM, 24 h, DENV 2 MOI 5
Protocol: Given that HEK293T/17 cells are not representative of a DENV target tissue, the antiviral activity of the VDR agonists was evaluated in cells representative of a primary target cell. For this reason, HepG2 cells were infected with DENV 2, followed by treatment with 10 μM of the five effective VDR agonists (ZD-1, ZD-2, ZD-3, ZD-5, and ZD-6) for 24 h, after which the level of infection was determined by flow cytometry.
Figure 5 Antiviral activity of VDR agonists against DENV infection on HepG2 cells. HepG2 cells were mock-infected or infected with DENV 2 at MOI 5 for 2 h, followed by the treatment with 10 μM of ZD-1, ZD-2, ZD-3, ZD-5 and ZD-6 for 24 h.p.i. The treated cells were collected and level of infection determined by flow cytometry. p value; *< 0.05, **< 0.01, ***< 0.001 for significance. The experiment was performed independently in triplicate.
HEK293T/17 cells were mock-infected or infected with DENV 2 at MOI 5 for 2 h, followed by treatment with the appropriate concentration of VDR agonists. At 24 hpi, the treated cells were harvested and Fc receptors were blocked with 10% goat serum (Gibco BRL, Gaithersburg, MD) for 30 min at 4 °C. […] Finally, the cells were analyzed by flow cytometry on a BD FACSCalibur cytometer (Becton Dickinson, BD Biosciences, San Jose, CA) using the CELLQuest software. […]

[6] = 10 µM, 24 h, HEK293T/17, plaque assay
[7] = 20 μM, 24 h.p.i., HEK293T/17, plaque assay

Row | Structure (SMILES) | level of infection (DENV 2 [2]; 10 µM, 24 h) | reduction of virus production (DENV 2 [4]; [6]) | EC50 (DENV 2 [4]) [µM] | CC50 (HEK293T/17 cells) [µM] | also measured
1 | C=C1/C(=C\C=C2/CCC[C@]3(C)[C@@H]([C@H](C)CCCC(C)(C)O)CC[C@@H]23)C[C@@H](O)C[C@@H]1O [1,25(OH)2D3, 1,25-dihydroxyvitamin D3] | – | – | – | – | numbers of infected cells [1]: decreased numbers of infected cells
2 | O=C1C2CCCN2C(c2ccc(O)cc2)N1c1ccc([N+](=O)[O-])cc1 (stereo not drawn) [ZD-6] | highly significant reductions | 2-3 Log10 | 11.3 | 277 | virus production, DENV 3 (DENV 3 (strain 16562)): significantly inhibited; magnitude of inhibition of virus production [3]: 1–3 Log10; virus production, JEV (JEV (strain BJ1)): significantly inhibited; virus production, DENV 1 (DENV 1 (strain 16007)): significantly inhibited; virus production, DENV 4 (DENV 4 (strain 1036)): significantly inhibited; virus production, ZIKV (ZIKV (strain SV0010/15)): significantly inhibited
3 | CSCCC(NC(=O)OC(C)(C)C)C(=O)Nc1ccc(C2N(c3ccc([N+](=O)[O-])cc3)C(=O)C3CCCN32)cc1 (stereo not drawn) [ZD-4] | – | over 1 Log10 | 33.5 | 520 | infection levels reduced by (DENV 2 [2]; 10 µM, 24 h, HEK293T/17): approximately 50%
4 | C=C1/C(=C\C=C2/CCC[C@]3(C)[C@@H]([C@H](C)/C=C/C=C/C(O)(CC)CC)CC[C@@H]23)C[C@@H](O)C[C@@H]1O [EB1089, reference compound] | – | – | – | – | levels of infected cells (DENV 2 [2]; 20 μM, 24 h.p.i., HEK293T/17): significantly reduced; transcriptional level of VDR (VDR): significantly up regulated; transcriptional level of CYP27B1 (CYP27B1): significantly up regulated; reduction of viral production (DENV 2 [4]; [7]): approximately 2 Log10; viral yield (DENV 2 [4]; [7]): significantly reduced; transcriptional level of CYP24A1 (CYP24A1): significantly up regulated
5 | COc1cc(C2N(c3ccc([N+](=O)[O-])cc3)C(=O)C3CCCN32)ccc1O (stereo not drawn) [ZD-2] | highly significant reductions | 2-3 Log10 | 11.8 | 314 | –
6 | CSCCC(NC(=O)OC(C)(C)C)C(=O)Oc1ccc(C2N(c3ccc([N+](=O)[O-])cc3)C(=O)C3CCCN32)cc1 (stereo not drawn) [ZD-20] | no significant reduction | – | 152 | 908 | effect on DENV 2 titer in the supernatant (DENV 2 [4]; [6]): no significant effect
7 | O=C1C2CCCN2C(c2ccco2)N1c1ccc([N+](=O)[O-])cc1 (stereo not drawn) [ZD-1] | highly significant reductions | 2-3 Log10 | 8.74 | 260 | level of infection in HepG2 cells (DENV 2 [5]): modest; level of infection, treatment at 6 and 12 h post-infection (DENV 2 [2]; 10 µM): significant reductions; virus titer, treatment at 6 and 12 h post-infection (DENV 2 [4]; 10 µM): significant reductions
8 | CSCCC(N)C(=O)Oc1ccc(C2N(c3ccc([N+](=O)[O-])cc3)C(=O)C3CCCN32)cc1.Cl (stereo not drawn) [ZD-3] | highly significant reductions | – | 7.47 | 394 | –
9 | COc1ccc(CC2N(c3ccc([N+](=O)[O-])cc3)C(=O)C3CCCN32)cc1OC (stereo not drawn) [ZD-5] | highly significant reductions | 2-3 Log10 | 8.46 | 439 | level of infection, treatment at 6 and 12 h post-infection (DENV 2 [2]; 10 µM): significant reductions; virus titer, treatment at 6 and 12 h post-infection (DENV 2 [4]; 10 µM): significant reductions
